From US12084472B2 (Ardelyx, Inc., priority 2015, dated 2024) come the findings set out here.

In the test the target is T1, human TGR5 (Homo sapiens, UniProt Q8TDU6).
T1 construct: expressed in transfected cells; host or cells: HEK293
T1 sequence (Q8TDU6 1-330): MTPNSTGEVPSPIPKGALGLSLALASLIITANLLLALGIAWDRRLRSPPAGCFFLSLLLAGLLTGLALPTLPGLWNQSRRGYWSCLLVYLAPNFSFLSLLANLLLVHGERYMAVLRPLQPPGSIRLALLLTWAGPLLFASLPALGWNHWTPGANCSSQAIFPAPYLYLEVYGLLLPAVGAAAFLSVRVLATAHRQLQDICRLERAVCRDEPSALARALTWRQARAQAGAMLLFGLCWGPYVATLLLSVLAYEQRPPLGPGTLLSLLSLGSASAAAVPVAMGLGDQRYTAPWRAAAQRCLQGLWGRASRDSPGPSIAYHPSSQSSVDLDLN
Kind of test: Cell-based TGR5 assay (cAMP generation, HTRF). The settings on record: HEK293 cells stably transfected with human TGR5; cAMP by HTRF; 30 minutes at 37° C.; read-out: pEC50 Human TGR5 (converted). In a few lines: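 First, compounds in 3-fold serial dilution were placed in HBSS with 10 mM HEPES pH 7.4 and 0.5 mM IBMX. Next, human TGR5-expressing HEK293 cells were added and incubated 30 min at 37° C. Finally, cAMP was detected by HTRF and pEC50 derived by logistic fitting.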
For orientation: TR-FRET usually uses a lanthanide donor and a delayed reading to cut background.
For `CC(=O)N(CCCC(C)c1ccc(Cl)c(CNC2(c3cnccc3-c3ccccc3OC3CC3)CC2)c1)C[C@H](O)[C@@H](O)[C@H](O)[C@H](O)CO` (stereo partly drawn) [Compound I-377, N-(4-{4-chloro-3-[({1-[4-(2-cyclopropoxyphenyl)pyridin-3-yl]cyclopropyl}amino)methyl]phenyl}pentyl)-N-[(2S,3R,4R,5R)-2,3,4,5,6-pentahydroxyhexyl]acetamide], the EC50 was less than 0.1 µM. Turning to `CC(=O)N(CCCCC(C)c1ccc(Cl)c(CNC2(c3cnccc3-c3ccccc3OC3CC3)CC2)c1)C[C@H](O)[C@@H](O)[C@H](O)[C@H](O)CO` (stereo partly drawn) [Compound I-378, N-(5-{4-chloro-3-[({1-[4-(2-cyclopropoxyphenyl)pyridin-3-yl]cyclopropyl}amino)methyl]phenyl}hexyl)-N-[(2S,3R,4R,5R)-2,3,4,5,6-pentahydroxyhexyl]acetamide], the EC50 was less than 0.1 µM. Turning to `CC(CCCC(=O)N(C)C[C@H](O)[C@@H](O)[C@H](O)[C@H](O)CO)c1cc(Cl)c(CNC2(c3cnccc3-c3ccccc3OC3CC3)CC2)cc1Cl` (stereo partly drawn) [Compound I-379, 5-{2,5-dichloro-4-[({1-[4-(2-cyclopropoxyphenyl)pyridin-3-yl]cyclopropyl}amino)methyl]phenyl}-N-methyl-N-[(2S,3R,4R,5R)-2,3,4,5,6-pentahydroxyhexyl]hexanamide], the EC50 was 0.126 to 1 µM. Turning to `O=C(NCCCC(CO)c1ccc(Cl)c(CNC2(c3cnccc3-c3ccccc3OC3CC3)CC2)c1)[C@@H](O)[C@@H](O)[C@H](O)[C@@H](O)CO` (stereo partly drawn) [Compound I-380, (2S,3S,4R,5S)-N-(4-[4-chloro-3-[([1-[4-(2-cyclopropoxyphenyl)pyridin-3-yl]cyclopropyl]amino)methyl]phenyl]-5-hydroxypentyl)-2,3,4,5,6-pentahydroxyhexanamide], the EC50 was 0.126 to 1 µM. Under `C=C(CCCNC(=O)[C@@H](O)[C@@H](O)[C@H](O)[C@@H](O)CO)c1ccc(Cl)c(CNC2(c3cnccc3-c3ccccc3OC3CC3)CC2)c1` [Compound I-381, (2S,3S,4R,5S)-N-(4-[4-chloro-3-[([1-[4-(2-cyclopropoxyphenyl)pyridin-3-yl]cyclopropyl]amino)methyl]phenyl]pent-4-en-1-yl)-2,3,4,5,6-pentahydroxyhexanamide] stands less than 0.1 µM.

For the compound `O=C(NCCCC1(c2ccc(Cl)c(CNC3(c4cnccc4-c4ccccc4OC4CC4)CC3)c2)CC1)[C@@H](O)[C@@H](O)[C@H](O)[C@@H](O)CO` [Compound I-382, (2S,3S,4R,5S)-N-[3-(1-[4-chloro-3-[([1-[4-(2-cyclopropoxyphenyl)pyridin-3-yl]cyclopropyl]amino)methyl]phenyl]cyclopropyl)propyl]-2,3,4,5,6-pentahydroxyhexanamide], the EC50 is less than 0.1 µM. `C=C(CCCNC(=O)NC[C@H](O)[C@@H](O)[C@H](O)[C@H](O)CO)c1ccc(Cl)c(CNC2(c3cnccc3-c3ccccc3OC3CC3)CC2)c1` [Compound I-383, 1-(4-{4-chloro-3-[({1-[4-(2-cyclopropoxyphenyl)pyridin-3-yl]cyclopropyl}amino)methyl]phenyl}pent-4-en-1-yl)-3-[(2S,3R,4R,5R)-2,3,4,5,6-pentahydroxyhexyl]urea]: the EC50 was less than 0.1 µM. The figure for `O=C(NCCCC(CO)c1ccc(Cl)c(CNC2(c3cnccc3-c3ccccc3OC3CC3)CC2)c1)NC[C@H](O)[C@@H](O)[C@H](O)[C@H](O)CO` (stereo partly drawn) [Compound I-384, 1-(4-{4-chloro-3-[({1-[4-(2-cyclopropoxyphenyl)pyridin-3-yl]cyclopropyl}amino)methyl]phenyl}-5-hydroxypentyl)-3-[(2S,3R,4R,5R)-2,3,4,5,6-pentahydroxyhexyl]urea] is 0.126 to 1 µM. The figure for `O=C(NCCCC1(c2ccc(Cl)c(CNC3(c4cnccc4-c4ccccc4OC4CC4)CC3)c2)CC1)NC[C@H](O)[C@@H](O)[C@H](O)[C@H](O)CO` [Compound I-385, 1-[3-(1-{4-chloro-3-[({1-[4-(2-cyclopropoxyphenyl)pyridin-3-yl]cyclopropyl}amino)methyl]phenyl}cyclopropyl)propyl]-3-[(2S,3R,4R,5R)-2,3,4,5,6-pentahydroxyhexyl]urea] is less than 0.1 µM. Under `Cc1ccc(C(CO)CCCNC(=O)[C@@H](O)[C@@H](O)[C@H](O)[C@@H](O)CO)cc1CNC1(c2cnccc2-c2ccccc2OC2CC2)CC1` (stereo partly drawn) [Compound I-386, (2S,3S,4R,5S)-N-(4-{3-[({1-[4-(2-cyclopropoxyphenyl)pyridin-3-yl]cyclopropyl}amino)methyl]-4-methylphenyl}-5-hydroxypentyl)-2,3,4,5,6-pentahydroxyhexanamide] stands less than 0.1 µM; under `Cc1ccc(C(CO)CCCNC(=O)NC[C@H](O)[C@@H](O)[C@H](O)[C@H](O)CO)cc1CNC1(c2cnccc2-c2ccccc2OC2CC2)CC1` (stereo partly drawn) [Compound I-387, 1-(4-{3-[({1-[4-(2-cyclopropoxyphenyl)pyridin-3-yl]cyclopropyl}amino)methyl]-4-methylphenyl}-5-hydroxypentyl)-3-[(2S,3R,4R,5R)-2,3,4,5,6-pentahydroxyhexyl]urea], 0.126 to 1 µM; under `CCN(CCCCNC(=O)NC[C@H](O)[C@@H](O)[C@H](O)[C@H](O)CO)S(=O)(=O)c1ccc(Cl)c(COC2(c3cnccc3-c3ccccc3OC3CC3)CC2)c1` [Compound I-390, 4-chloro-3-((1-(4-(2-cyclopropoxyphenyl)pyridin-3-yl)cyclopropoxy)methyl)-N-ethyl-N-(4-(3-((2S,3R,4R,5R)-2,3,4,5,6-pentahydroxyhexyl)ureido)butyl) benzenesulfonamide], less than 0.1 µM. Consider `CC(C)N(CCCCNC(=O)NC[C@H](O)[C@@H](O)[C@H](O)[C@H](O)CO)S(=O)(=O)c1ccc(Cl)c(COC2(c3cnccc3-c3ccccc3OC3CC3)CC2)c1` [Compound I-391, 3-[(2S,3R,4R,5R)-2,3,4,5,6-pentahydroxyhexyl]-1-[4-[N-(propan-2-yl)[4-chloro-3-([1-[4-(2-cyclopropoxyphenyl)pyridin-3-yl]cyclopropoxy]methyl)benzene]sulfonamido]butyl]urea], for which the EC50 is less than 0.1 µM. The figure for `CN(CCCCNC(=O)NC[C@H](O)[C@@H](O)[C@H](O)[C@H](O)CO)S(=O)(=O)c1cc(CNC2(c3cnccc3-c3ccccc3OC3CC3)CC2)c(Cl)cc1Cl` [Compound I-392, 1-[4-(N-methyl[2,4-dichloro-5-[([1-[4-(2-cyclopropoxyphenyl)pyridin-3-yl]cyclopropyl]amino)methyl]benzene]sulfonamido)butyl]-3-[(2S,3R,4R,5R)-2,3,4,5,6-pentahydroxyhexyl]urea] is less than 0.1 µM.

As to `CN(C)S(=O)(=O)c1ccc(Cl)c(COC2(c3cnccc3-c3ccccc3OC3CC3)CC2)c1` [Compound I-393, 4-chloro-3-([1-[4-(2-cyclopropoxyphenyl)pyridin-3-yl]cyclopropoxy]methyl)-N,N-dimethylbenzene-1-sulfonamide], the EC50 was less than 0.1 µM.

As for `CNS(=O)(=O)c1ccc(Cl)c(COC2(c3cnccc3-c3ccccc3OC3CC3)CC2)c1` [Compound I-394, 4-chloro-3-({1-[4-(2-cyclopropoxyphenyl)pyridin-3-yl]cyclopropoxy}methyl)-N-methylbenzene-1-sulfonamide], the EC50 is less than 0.1 µM. The figure for `O=S(=O)(c1ccc(Cl)c(COC2(c3cnccc3-c3ccccc3OC3CC3)CC2)c1)N1CCCC1` [Compound I-395, 3-(1-{[2-chloro-5-(pyrrolidine-1-sulfonyl)phenyl]methoxy}cyclopropyl)-4-(2-cyclopropoxyphenyl)pyridine] is less than 0.1 µM; for `O=S(=O)(c1ccc(Cl)c(COC2(c3cnccc3-c3ccccc3OC3CC3)CC2)c1)N1CCCCC1` [Compound I-396, 3-(1-{[2-chloro-5-(piperidine-1-sulfonyl)phenyl]methoxy}cyclopropyl)-4-(2-cyclopropoxyphenyl)pyridine] it is less than 0.1 µM; for `O=S(=O)(NC[C@H](O)[C@@H](O)[C@H](O)[C@H](O)CO)c1ccc(Cl)c(COC2(c3cnccc3-c3ccccc3OC3CC3)CC2)c1` [Compound I-397, (2S,3R,4R,5R)-S-[4-chloro-3-({1-[4-(2-cyclopropoxyphenyl)pyridin-3-yl]cyclopropoxy}methyl)phenyl]-2,3,4,5,6-pentahydroxyhexane-1-sulfonamido] it is 0.126 to 1 µM.

Turning to `CN(C[C@H](O)[C@@H](O)[C@H](O)[C@H](O)CO)S(=O)(=O)c1ccc(Cl)c(COC2(c3cnccc3-c3ccccc3OC3CC3)CC2)c1` [Compound I-398, (2S,3R,4R,5R)-S-[4-chloro-3-({1-[4-(2-cyclopropoxyphenyl)pyridin-3-yl]cyclopropoxy}methyl)phenyl]-2,3,4,5,6-pentahydroxy-N-methylhexane-1-sulfonamido], the EC50 was less than 0.1 µM. Under `NCCOCCNS(=O)(=O)c1ccc(Cl)c(COC2(c3cnccc3-c3ccccc3OC3CC3)CC2)c1` [Compound I-399, N-[2-(2-aminoethoxy)ethyl]-4-chloro-3-({1-[4-(2-cyclopropoxyphenyl)pyridin-3-yl]cyclopropoxy}methyl)benzene-1-sulfonamide] stands 0.126 to 1 µM; under `CN(CCOCCN)S(=O)(=O)c1ccc(Cl)c(COC2(c3cnccc3-c3ccccc3OC3CC3)CC2)c1` [Compound I-400, N-[2-(2-aminoethoxy)ethyl]-4-chloro-3-({1-[4-(2-cyclopropoxyphenyl)pyridin-3-yl]cyclopropoxy}methyl)-N-methylbenzene-1-sulfonamide], 0.126 to 1 µM.
